The source of these data is patent publication US12116388B2, “Amylin receptor agonists” (Novo Nordisk A/S, priority 2022, dated 2024).

Data set [1] in a line: Oral pharmacokinetic profiles in Beagle dogs (SNAC tablets). The data set is classed as in vivo. As to conditions: oral tablet: 3 mg compound, 300 mg SNAC, 7.7 mg magnesium stearate; for half-life: male, dog, plasma, read-out: T½ (converted). In short, it runs like this: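 Male Beagle dogs, fasted overnight, received an oral immediate-release tablet of 3 mg compound with 300 mg SNAC, 10 min after ~3.2 nmol/kg subcutaneous glucagon. EDTA plasma sampled up to 288 h post-dose; concentrations measured by ethanol protein precipitation and LC-MS for pharmacokinetic parameters.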

The target in data set [2] is T1, human amylin receptor (hAMYR3) (Homo sapiens, UniProt O60896+P30988).
T1 construct: host or cells: BHK (Baby Hamster Kidney), Hollex-1 cell line further transfected with RAMP3
Briefly: Human amylin receptor (hAMYR3) in vitro potency assay, CRE-luciferase reporter in BHK cells. The data set is classed as cell-based. The conditions noted are these: BHK hAMYR3/CRE-Luc cells, 3 hours incubation, assay buffer with 1% ovalbumin. The gist of the method: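 Luminescence from a CRE-driven luciferase reporter reflects cAMP-mediated receptor activation. Peptides were serially diluted (7 concentrations, 7-fold steps, typically starting near 10 nM) in buffer with 1% ovalbumin and applied for 3 h at 37 °C to BHK cells co-expressing calcitonin receptor (a) and RAMP3.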
On the technique in general: Reporter assays use an easily measured gene product as a stand-in for the process of interest.

The term EC50 denotes the midpoint of the concentration-response curve.

Each structure is given as a SMILES string. Starred links: 1 amine or outer side, 2 acyl side, 3 side chain; linkers in the order of their positions; H or OH if unused. Residues, ends and D or L forms follow the SMILES beside them. *: point of attachment. C18 diacid = O=C(O)CCCCCCCCCCCCCCCCC(=O)*; γGlu = O=C(O)[C@H](CCC(=O)[*:2])N[*:1]

T1 sequence (P30988 25-474): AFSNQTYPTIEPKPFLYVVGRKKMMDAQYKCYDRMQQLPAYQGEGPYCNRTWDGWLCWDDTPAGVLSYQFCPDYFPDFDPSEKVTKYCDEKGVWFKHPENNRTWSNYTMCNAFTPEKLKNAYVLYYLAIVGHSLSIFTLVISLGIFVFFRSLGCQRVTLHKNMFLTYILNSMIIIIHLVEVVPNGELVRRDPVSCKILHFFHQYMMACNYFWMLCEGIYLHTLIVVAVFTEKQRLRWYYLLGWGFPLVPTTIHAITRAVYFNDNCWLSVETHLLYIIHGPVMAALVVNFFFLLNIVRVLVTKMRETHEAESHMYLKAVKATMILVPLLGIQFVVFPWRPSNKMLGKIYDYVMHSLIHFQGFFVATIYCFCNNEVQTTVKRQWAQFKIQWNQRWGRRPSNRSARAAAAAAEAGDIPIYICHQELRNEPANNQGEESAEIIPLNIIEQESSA
T1 sequence (O60896 24-148): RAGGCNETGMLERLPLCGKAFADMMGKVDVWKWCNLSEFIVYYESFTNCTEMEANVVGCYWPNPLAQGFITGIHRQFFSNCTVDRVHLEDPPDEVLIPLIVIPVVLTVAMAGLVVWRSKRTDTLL

For the compound `CC[C@H](C)[C@H](NC(=O)[C@@H]1CCCN1C(=O)CNC(=O)[C@H](Cc1ccccc1)NC(=O)[C@H](CC(N)=O)NC(=O)[C@H](CC(=O)O)NC(=O)[C@H](CO)NC(=O)[C@H](CO)NC(=O)[C@H](Cc1c[nH]cn1)NC(=O)[C@H](Cc1c[nH]cn1)NC(=O)[C@H](CC(C)C)NC(=O)[C@H](Cc1ccccc1)NC(=O)[C@H](CCC(=O)O)NC(=O)[C@H](C)NC(=O)[C@H](CC(C)C)NC(=O)[C@H](CCCNC(=N)N)NC(=O)[C@H](C)NC(=O)[C@@H](NC(=O)[C@H](CCC(N)=O)NC(=O)[C@H](C)NC(=O)[C@@H](NC(=O)[C@H](CO)NC(=O)[C@H](CC(C)C)NC(=O)[C@H](Cc1c[nH]cn1)NC(=O)[C@H](CO)NC(=O)[C@H](C)NC(=O)CC[C@H](NC(=O)CCCCCCCCCCCCCCCCC(=O)O)C(=O)O)[C@@H](C)O)[C@@H](C)O)C(=O)N[C@@H](CC(C)C)C(=O)N1CCC[C@H]1C(=O)N1CCC[C@H]1C(=O)N[C@H](C(=O)N[C@@H](CC(=O)O)C(=O)N[C@H](C(=O)NCC(=O)N[C@@H](CO)C(=O)N[C@@H](CC(N)=O)C(=O)N[C@H](C(=O)N1CCC[C@H]1C(N)=O)[C@@H](C)O)C(C)C)[C@@H](C)O` [Compound 14, N^1-[(4S)-4-carboxy-4-(17-carboxyheptadecanoylamino)butanoyl]-[Ala1,Ser2,His3,Leu4,Ser5,Ala7,Gln8,Ala10,Glu14,His17,Asp21,Pro25,Pro28,Pro29,Asp31,Pro37]-human amylin] ({C18 diacid-γGlu}-ASHLSTAQTARLAEFLHHSSDNFGPILPPTDVGSNTP-NH2), in data set [1], the half-life was 113 h, the “AUC/D” value is 20.76 kg·h/L and the “Cmax/D” value was found to be 0.34 kg/L. The EC50 in data set [2] is 1.28 pM.

`CC[C@H](C)[C@H](NC(=O)[C@@H]1CCCN1C(=O)CNC(=O)[C@H](Cc1ccccc1)NC(=O)[C@H](Cc1c[nH]cn1)NC(=O)[C@H](Cc1c[nH]cn1)NC(=O)[C@H](CC(C)C)NC(=O)[C@H](Cc1ccccc1)NC(=O)[C@H](CCC(=O)O)NC(=O)[C@H](C)NC(=O)[C@H](CC(C)C)NC(=O)[C@H](CCCNC(=N)N)NC(=O)[C@H](C)NC(=O)[C@@H](NC(=O)[C@H](CCC(N)=O)NC(=O)[C@H](C)NC(=O)[C@@H](NC(=O)[C@H](CO)NC(=O)[C@H](CC(C)C)NC(=O)[C@H](CCC(=O)O)NC(=O)CNC(=O)[C@H](C)NC(=O)CC[C@H](NC(=O)CCCCCCCCCCCCCCCCC(=O)O)C(=O)O)[C@@H](C)O)[C@@H](C)O)C(=O)N[C@@H](CC(C)C)C(=O)N1CCC[C@H]1C(=O)N1CCC[C@H]1C(=O)N[C@H](C(=O)N[C@@H](CC(=O)O)C(=O)N[C@H](C(=O)NCC(=O)N[C@@H](CO)C(=O)N[C@@H](CCC(=O)O)C(=O)N[C@H](C(=O)N1CCC[C@H]1C(N)=O)[C@@H](C)O)C(C)C)[C@@H](C)O` [Compound 16, N^1-[(4S)-4-carboxy-4-(17-carboxyheptadecanoylamino)butanoyl]-[Ala1,Gly2,Glu3,Leu4,Ser5,Ala7,Gln8,Ala10,Glu14,His17,Pro25,Pro28,Pro29,Asp31,Glu35,Pro37],des-(19-22)-human amylin] ({C18 diacid-γGlu}-AGELSTAQTARLAEFLHHFGPILPPTDVGSETP-NH2): in data set [1], the half-life is 95.8 h, the “AUC/D” value worked out at 35.59 kg·h/L and the “Cmax/D” value was 0.48 kg/L. In addition, in data set [2], the EC50 came out at 1.25 pM.
